Common to all, as to format: cell-based
Assay [1] deals with human peripheral blood mononuclear cells (PBMCs). As to the kind of experiment: T-cell inflammation inhibition assay using PHA: cytokine release from PBMCs. On the procedure:
(§1) The human peripheral blood mononuclear cells (PBMCs) used in the following experiments are derived from Eurofins Discovery (St Charles, Mo., USA) and are a mixture of PBMCs from three healthy human subjects (Lot#98, 99, 101).
(§2) 2) T-Cell Inflammation Inhibition Assay Protocol Using Anti-CD3 (OKT3) or PHA
(§3) Cryopreserved PBMCs are drip thawed, pooled and diluted to an appropriate density, and inoculated into a 96-well polypropylene plate (2×10^5 cells per well) with 150 μL per well of culture medium (RPMI 1640, 10% heat inactivated fetal bovine serum, 1% penicillin/streptomycin, 2 mM L-glutamine). The cells are incubated under 5% CO2 at 37° C. for 1 hour before adding HPC. HPC is dissolved in 50% ethanol & PBS, and is further diluted to 20× with cell culture medium. Then HPC is added to the PBMCs in volumes of 10 μL (1×) in triplicate and incubated under 5% CO2 at 37° C. for 16 hours.
(§4) After incubation for 16 hours, 40 μL of anti-CD3 (OKT3, 3 μg/well or 15 μg/mL) or PHA (10 μg/mL) is added to the wells according to the plate layout. The cells are incubated under 5% CO2 at 37° C. for 48 hours. Thereafter, the plates are centrifuged at 200×g for 10 minutes. Cell culture supernatants are collected and stored at −80° C. until use in analysis.
(§5) The cytokine level of each sample is determined using Luminex methodology and carried out in accordance with the manufacturer's protocol. Cytokine levels in the cell culture supernatants are determined in accordance with the manufacturer's protocol using Human Cytokine/Chemokine Magnetic bead panel from Millipore Sigma (catalogue No. HCYTOMAG-60K) with standards range 3.2, 16, 80, 400, 2000, […].
(§6) The following cytokines are measured: IFN-γ, IL-2, IL-6, IL-10 and TNFα.

For assay [2] the test system is unchanged. The assay is described as follows: T-cell inflammation inhibition assay using anti-CD28 super agonist (ANC28.1/5D10): cytokine release from PBMCs. The conditions noted are these: PBMCs stimulated by anti-CD28 antibody. The protocol:
as §1
1) T-cell Inflammation Inhibition Assay Protocol Using Anti-CD28 Super Agonists First Day
High-binding enzyme-labeled plates are coated with anti-CD28 super agonists (clone ANC28.1/5D10, 2 μg/well) dissolved in PBS 1× and incubated overnight in a biosafety cabinet with lid open and immobilized by air-dry. Cryopreserved PBMCs are drip thawed, pooled and diluted to an appropriate density, and then are inoculated into a U bottom 96-well polypropylene plate (1.2×10^5 cells per well) with 228 μL per well of culture medium (RPMI 1640, 10% heat inactivated fetal bovine serum, 1% penicillin/streptomycin, 2 mM L-glutamine). The cells are incubated under 5% CO2 at 37° C. for 1 hour before adding HPC. HPC is dissolved in 50% ethanol & PBS, and is further diluted to 20× with cell culture medium. Then HPC is added to the PBMCs in volumes of 12 μL (1×) in triplicate and incubated under 5% CO2 at 37° C. for 16 hours.
After 16 hours of incubation, 200 μL of cells (1×10^5) treated with HPC or a control reagent are transferred to the anti-CD28 coated enzyme-labeled plates, and incubated under 5% CO2 at 37° C. for 48 hours. For the negative control groups, 200 μL of cells (1×10^5) are transferred to an enzyme-labeled plate coated with anti-CD28 or isotype IgG1. After 48 hours of incubation, the enzyme-labeled plates are centrifuged at […] for 10 minutes. Cell culture supernatants are collected and stored at −80° C. until use in analysis.
as §5, §6

Assay [3] shares this test system. The assay is described as follows: T-cell inflammation inhibition assay using anti-CD3 (OKT3): cytokine release from PBMCs. As to conditions: PBMCs stimulated by OKT3. On the procedure: as §1, §2, §3, §4, §5, §6
Where [4] appears, read: PBMCs stimulated by PHA (10 μg/mL), 16 h HPC pre-incubation, 48 h stimulation, Luminex.
[5] abbreviates: 16 h HPC pre-incubation, 48 h stimulation, Luminex.

As to `CCCCCC(=O)O[C@]1(C(C)=O)CC[C@H]2[C@@H]3CCC4=CC(=O)CC[C@]4(C)[C@H]3CC[C@@]21C` [HPC, hydroxyprogesterone caproate], in assay [1] (PBMCs stimulated by PHA), the “inhibition of IL-2, IL-6, IL-10 and TNF-α release: concentration dependence” value is listed as “concentration dependent”. For the same molecule, in assay [1] (setting [4]), the “release of IL-2” value is given as “significantly inhibited”, the “release of IL-6” value is listed as “significantly inhibited”, the “release of IL-10” value is “significantly inhibited” and the “release of TNF-α” value is given as “significantly inhibited”. Moreover, in assay [2], the “inhibition effect on IL-10 and IFN-γ release: concentration dependence” value is “concentration dependent”. Besides, in assay [2] (setting [5]), the “release of IFN-γ” value is on record as “significantly inhibited”, the “release of IL-6” value is given as “significantly inhibited”, the “release of IL-10” value is listed as “significantly inhibited” and the “release of TNF-α” value was “significantly inhibited”. In addition, the “inhibition effect on IL-6 and IL-10 release: concentration dependence” value in assay [3] is “concentration dependent”. Moreover, in assay [3] (setting [5]), the “release of IFN-γ” value is recorded as “significantly inhibited”, the “release of IL-6” value is “significantly inhibited” and the “release of IL-10” value was “significantly inhibited”.

The values above are taken from US20220193092A1, “PROGESTOGEN FOR USE IN THE TREATMENT OF CYTOKINE RELEASE SYNDROME” (Shenzhen Evergreen Therapeutics Co,. Ltd., priority 2020, published 2022).
